Where two headings read alike, the source gives them in different places. Values belong to the compound of their own block, whether it stands above or below them. Peptide text beside a SMILES is read from it. * marks the point of attachment. Cbz = O=C(OCc1ccccc1)*
Assays:
Ha-Ras = Ha-Ras / Ki-Ras protein levels in primary fibroblasts (immunoprecipitation, immunoblot, immunofluorescence, FACS); assay type: cell-based, human; conditions: for effect on Ha-Ras induction by PDGF / effect on Ha Ras levels: primary fibroblasts
Description: Ras proteins were immunoprecipitated from cultured fibroblasts with polyclonal anti pan Ras antibody (Santa Cruz Biotechnology, Santa Cruz, Calif.) following recommended procedures from the manufacturer.
Fibroblasts, cultured on Lab-Tek chamber glass slides (Nalge-Nunc, Ill., USA) and starved 48 h before stimulation or addition of inhibitors, were fixed 4% para-formaldheide, permeabilized by 0.1% Triton-X, and stained with a monoclonal antibody against Ha-Ras and then with a tetramethylrhodamine-isothiocyanate (TRITC) conjugated secondary antibody (Molecular Probes, NL). Slides were mounted with Vectarshield (H-100; Vector, Burlingame, Calif.) and examined using a BioRad (Hemel Hempstead, UK) microradiance confocal laser-scanning microscope equipped with argon and helium/neon lasers. Acquired images were analysed using the Laser Sharp Processing BioRad software (version 3.2). All images from different slides condition were acquired in double-blinded fashion.
Cells were grown to semiconfluency in 60 mm culture dishes. After trypsin detachment, 5×10^5 cells were suspended in 1 ml of phosphate buffered saline (PBS) and fixed overnight with 1% formaldehyde at room temperature. Next, cells were permeabilized with 0.1% Triton×100 for 40 min at 4° C., washed 4 times with 2 ml of PBS containing 2% FBS, 0.01% NaN3, 0.1% Triton×100 (buffer A), and incubated for 45 min at 4° C. with 1:50 dilution of monoclonal and polyclonal anti HaRas antibodies (Santa Cruz Biotechnology, Santa Cruz, Calif., USA). The cells were then washed twice with the same buffer and incubated for 45 min at 4° C. with Cy2-conjugated anti-mouse IgG antibodies (Amersham Pharmacia Biotech, Milano, Italia) at 1:50 dilution. Control cells were incubated with Cy2-conjugated anti mouse IgG antibodies alone. After two washes in buffer A, cells were resuspended in PBS and analyzed by flow cytometry using FACScan (BD, Heidelberg, Germany) and WinMDI software.

ERK1/2 = assay: P-ERK1/2 immunoblot in primary fibroblasts; assay type: cell-based, human; conditions: for effect on ERK1/2 activated by PDGF: NAC 20 mM 5 h, DPI 20 μM 1 h, FIG. 5E
Description: Cell culture plates were lysed with 0.3 ml of cold RIPA buffer (1×PBS, 1% Nonidet P-40, 0.5% sodium deoxycholate, 0.1% SDS, 2 mM sodium orthovanadate, 2 μg/ml aprotinin, 1 mM PMSF) and processed for immunoblotting as described (8).
Cell culture plates were lysed with 0.3 ml of cold RIPA buffer (1×PBS, 1% Nonidet P-40, 0.5% sodium deoxycholate, 0.1% SDS, 2 mM sodium orthovanadate, 2 μg/ml aprotinin, 1 mM PMSF) and processed as described (14).

normal human fibroblasts = assay: ROS (DCF fluorescence) in normal human fibroblasts; assay type: cell-based; conditions: for effect on ROS induction by SSc IgG in normal fibroblasts: FIG. 2A, pre-incubation for 2 hours (AG1478 2 μM, FT-277 20 μM, PD98059 40 μM)
Description: (§1) Fluorimetric determination of intracellular ROS generated by adherent fibroblasts was estimated after loading the cells with 2′,7′-dichlorofluorescein diacetate (DCFH-DA 10 μM, Molecular Probes, PoortGebouw, The Nederlands) for 15 min at 37° C. The DCF fluorescence intensity was measured by a CytoFluor plate reader (PerkinElmer, Wallac, Finland) (excitation wavelength, 485 nm; emission wavelength, 530 nm) (8). Ten measurements were made in each single well from ten distinct points and the values averaged. Each IgG sample was run in duplicate and the average has been recorded. The results are expressed as DCF fluorescence intensity calculated subtracting from the DCF fluorescence intensity of the test IgG the DCF fluorescence intensity of a negative control obtained by cell cultured without IgG. The intra-plate and the inter-plate coefficient of variation was less than 3%. The samples were recorded as positive if the SI was greater than the mean plus three standard deviations of the normal group.
In selected experiments ROS generation was evaluated after the addition of PDGF receptor tyrosine kinase inhibitor (AG 1296; 2 μM for 2 hours), Epidermal growth factor (EGF) receptor tyrosine kinase inhibitor (AG 1478; 2 μM for 2 hours), a chemical inhibitor of ERK 1/2 signalling (PD 98059; 40 μM for 2 hours), and a farnesyl protein transferase inhibitor to block Ras farnesylation (FTI-277; 20 μM for 2 hours). AG 1296, AG 1478, PD 98059 and FTI-277 were obtained from Calbiochem (San Diego, Calif.).
Fluorimetric determination of intracellular ROS generated by fibroblasts was estimated after loading the cells with DCFH-DA (10 μM) for 15 min at 37° C. before assessing DCF fluorescence level (15). Superoxide anion release was estimated using the superoxide dismutase-inhibitable cytochrome c reduction (12). H2O2 release from fibroblasts into the overlying medium was assayed using a modification of the method of Valletta and Berton (1987) (16). Oxidative activity imaging in living, transfected cells was evaluated as described (12, 17).

SSc fibroblasts = assay: Oxidative stress-induced apoptosis in scleroderma fibroblasts; assay type: cell-based, human; conditions: H2O2, pre-treatment, FIG. 8C
Description: Normal and scleroderma fibroblasts were grown to 80-90% confluence and treated for 2 h with different concentrations of H2O2. When needed, cells were preincubated 30 min with PD 98059 (40 μmol/L).
(§2) Six hours after the removal of the stimulus, apoptosis was detected by FACS analysis using annexin V-Cy3 (Clontech, Palo Alto Calif.). Statistical analysis

[1] = test system: Umbilical vein endothelial cells; assay: Apoptosis of umbilical vein endothelial cells (annexin V FACS); assay type: cell-based; conditions: overnight; SSc IgG 200 μg/ml, PDGF 15 ng/ml; FIG. 3C
Description: Endothelial cells will be isolated from umbilical cord. Cells were stimulated with SSc IgG (200 μg/ml), normal IgG (200 μg/ml) and PDGF (15 ng/ml) for 12 hours in the presence and in the absence of inhibitors of PDGFR and EGFR tyrosine kinase activity.
as §2

PDGFR = target: T1, PDGFR (Homo sapiens, UniProt P09619); assay: Tyrosine phosphorylation of the PDGFR in normal fibroblasts; assay type: cell-based; conditions: FIG. 2D and data not shown
T1 construct: endogenous in cells; host or cells: normal human fibroblasts
T1 sequence (P09619 33-1106): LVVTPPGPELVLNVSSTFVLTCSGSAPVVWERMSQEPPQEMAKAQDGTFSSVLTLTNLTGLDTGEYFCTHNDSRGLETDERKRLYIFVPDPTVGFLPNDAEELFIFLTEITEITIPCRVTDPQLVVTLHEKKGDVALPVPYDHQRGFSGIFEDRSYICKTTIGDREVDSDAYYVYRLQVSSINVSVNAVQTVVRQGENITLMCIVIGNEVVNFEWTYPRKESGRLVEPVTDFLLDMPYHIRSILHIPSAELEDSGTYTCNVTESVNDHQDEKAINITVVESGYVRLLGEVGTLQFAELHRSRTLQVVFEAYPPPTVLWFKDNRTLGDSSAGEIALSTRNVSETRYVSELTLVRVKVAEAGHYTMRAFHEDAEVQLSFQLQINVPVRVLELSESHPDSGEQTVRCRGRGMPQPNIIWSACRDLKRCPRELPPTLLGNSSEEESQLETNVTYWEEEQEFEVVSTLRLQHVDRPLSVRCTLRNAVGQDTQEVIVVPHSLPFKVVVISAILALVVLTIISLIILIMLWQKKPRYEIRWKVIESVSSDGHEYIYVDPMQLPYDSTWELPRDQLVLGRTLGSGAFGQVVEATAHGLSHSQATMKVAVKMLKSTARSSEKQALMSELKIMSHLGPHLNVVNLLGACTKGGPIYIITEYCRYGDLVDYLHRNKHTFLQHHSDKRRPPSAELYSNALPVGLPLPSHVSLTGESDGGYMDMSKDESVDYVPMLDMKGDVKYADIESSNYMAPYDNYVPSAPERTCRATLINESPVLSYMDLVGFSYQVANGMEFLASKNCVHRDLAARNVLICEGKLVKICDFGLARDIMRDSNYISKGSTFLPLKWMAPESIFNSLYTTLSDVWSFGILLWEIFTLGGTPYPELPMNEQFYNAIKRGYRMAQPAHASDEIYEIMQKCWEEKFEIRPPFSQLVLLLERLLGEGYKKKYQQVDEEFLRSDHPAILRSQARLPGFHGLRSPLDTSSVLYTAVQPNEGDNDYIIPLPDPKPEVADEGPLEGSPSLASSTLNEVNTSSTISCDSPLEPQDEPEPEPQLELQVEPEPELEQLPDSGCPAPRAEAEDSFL
Description: Panel D. Normal human fibroblasts were stimulated with SSc IgG (200 μg/ml for 15 min), PDGF (15 ng/ml for 15 min) or grown in FCS 0.2%. Cell lysates were immunoprecipitated with a polyclonal antibody against PDGFR (subunit β) and the immunoblots were developed with a specific antibody against phosphorylated tyrosine.

PDGF receptor = PDGF receptor level in primary fibroblast extracts (immunoblot); assay type: cell-based, human; conditions: independently on ERK1/2 activation; FIG. 5D
Description: D. PDGF induction of Ha-Ras is mediated by ERK1/2. Fibroblasts, incubated in 0.2% FCS for 48 h, were treated with the MEK inhibitors, PD98059 (40 μM) 2 h, before the treatment with PDGF (15 ng/ml).

[2] = target: T2, PDGFR α subunit expressed by Fα cells (Homo sapiens, UniProt P16234); assay: Bio-assay for anti PDGFR autoantibodies: ROS production (DCF fluorescence) in Fα cells; assay type: cell-based, mouse; conditions: pre-incubation 2 μM for 2 hours
T2 construct: expressed in transfected cells; host or cells: mouse embryo fibroblasts from PDGF receptor knock-out embryos (F-/-) infected with PDGFR α (Fα cells)
T2 sequence (P16234 24-1089): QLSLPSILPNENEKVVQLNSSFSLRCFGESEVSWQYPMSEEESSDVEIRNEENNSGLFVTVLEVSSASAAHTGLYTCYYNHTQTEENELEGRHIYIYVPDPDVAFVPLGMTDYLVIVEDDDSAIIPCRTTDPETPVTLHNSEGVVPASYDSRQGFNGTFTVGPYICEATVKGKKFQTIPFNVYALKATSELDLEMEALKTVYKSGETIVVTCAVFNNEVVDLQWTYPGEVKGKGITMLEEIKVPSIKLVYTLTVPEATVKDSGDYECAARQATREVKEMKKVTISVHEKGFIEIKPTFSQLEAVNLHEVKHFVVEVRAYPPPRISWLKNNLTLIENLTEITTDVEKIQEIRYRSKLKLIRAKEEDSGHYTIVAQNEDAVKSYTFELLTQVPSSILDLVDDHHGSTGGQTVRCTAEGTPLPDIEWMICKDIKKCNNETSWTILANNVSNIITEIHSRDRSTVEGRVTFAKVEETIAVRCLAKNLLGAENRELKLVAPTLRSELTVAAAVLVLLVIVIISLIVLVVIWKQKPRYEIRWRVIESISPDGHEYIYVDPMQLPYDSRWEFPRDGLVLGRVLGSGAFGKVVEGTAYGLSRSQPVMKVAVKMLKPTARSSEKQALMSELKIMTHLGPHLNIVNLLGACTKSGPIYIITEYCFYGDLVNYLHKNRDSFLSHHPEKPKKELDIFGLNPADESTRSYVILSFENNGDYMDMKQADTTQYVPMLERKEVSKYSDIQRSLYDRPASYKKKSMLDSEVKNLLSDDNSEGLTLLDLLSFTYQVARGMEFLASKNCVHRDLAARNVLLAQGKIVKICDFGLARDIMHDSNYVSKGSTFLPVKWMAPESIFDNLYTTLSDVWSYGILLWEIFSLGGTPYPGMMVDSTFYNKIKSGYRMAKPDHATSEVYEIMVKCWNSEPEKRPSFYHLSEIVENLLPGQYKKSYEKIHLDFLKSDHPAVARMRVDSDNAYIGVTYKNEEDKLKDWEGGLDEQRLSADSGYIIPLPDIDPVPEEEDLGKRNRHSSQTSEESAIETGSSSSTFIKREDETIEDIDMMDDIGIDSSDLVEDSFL
Description: Patients and control serum samples were tested for the presence of PDGFR activating autoantibodies in a functional bioassay based on the production of ROS by mouse embryo fibroblasts infected with PDGFR α and/or β subunits and exposed in vitro to immunopurified IgG. Control cells were F−/− cells devoid of PDGFR. In brief, cells were plated in duplicate at a density of 30,000 cells in 1.83-cm^2 wells and incubated for 24 hours at 37° C. in 0.2 percent fetal calf serum. The cells were then washed with phosphate-buffered saline and incubated with a pre-determined amount of control or patient IgG for 15 minutes at 37° C. before ROS production determination.
as §1, with “Ten measurements were made in each single well from ten distinct points and the values averaged.” left out, “The intra-plate and the inter-plate coefficient of variation was less than 3%. The samples were recorded as positive if the SI was greater than the mean plus three standard deviations of the normal group.” left out

[3] = 90 min in the presence of genistein, data not shown

Compound: c1ccc2c(c1)[I+]c1ccccc1-2 [DPI, diphenylene iodonium]
effect on Ha-Ras induction by PDGF (Ha-Ras; PDGF 15 ng/ml): significantly inhibited
effect on ERK1/2 activated by PDGF (ERK1/2): sensitive

Compound: N#CC(=C(/N)Sc1ccccc1N)/C(C#N)=C(\N)Sc1ccccc1N [U0126]
effect on induction of Ha-Ras by H2O2 (Ha-Ras): abolished

Compound: CC(C)C[C@@H](C=O)NC(=O)[C@H](CC(C)C)NC(=O)[C@H](CC(C)C)NC(=O)OCc1ccccc1 [MG132] (Cbz-Leu-Leu-Leu-aldehyde)
effect on Ha Ras when administered with PDGF or H2O2 (Ha-Ras; FIG. 6E): not additive
effect on Ha Ras levels (Ha-Ras; FIG. 6E): induced

Compound: C[C@@H]1C[C@@H]([C@H](O)CC2CC(=O)NC(=O)C2)C(=O)[C@@H](C)C1 [cycloheximide]
effect on Ha-Ras induction by PDGF (Ha-Ras; PDGF 15 ng/ml): did not prevent

Compound: CC(=O)N[C@@H](CS)C(=O)O [NAC, N-acetyl-L-cysteine]
effect on Ha-Ras induction by PDGF (Ha-Ras; PDGF 15 ng/ml): significantly inhibited
effect on ERK1/2 activated by PDGF (ERK1/2): sensitive

Compound: cyclodextrin
effect on Ha-Ras induction by PDGF (Ha-Ras; PDGF 15 ng/ml): did not abolish

Compound: O=c1c(-c2ccc(O)cc2)coc2cc(O)cc(O)c12 [genistein]
effect on Ha-Ras induced by H2O2, longer incubation (Ha-Ras; [3]): inhibited
effect on Ha-Ras induction by PDGF (Ha-Ras; PDGF 15 ng/ml): inhibited
effect on ERK1/2 induced by H2O2, longer incubation (ERK1/2; [3]): inhibited

Compound: PDGF
induction of endothelial cell apoptosis [1]: unable to induce apoptosis
duration of induced ROS (return to baseline) (normal human fibroblasts; discussion, cells not given): 15 to 30 min
half-life of Ha-Ras protein induced by PDGF (Ha-Ras; estimated from several experiments): approximately 40 min
Ki-Ras decay time (Ha-Ras; of PDGF stimulation, FIG. 4A): 3 h
time after stimulation at which Ha-Ras decreased to the initial levels (Ha-Ras; primary human fibroblasts, growth factor still present): 120 min
PDGF stimulation time sufficient to induce Ha-Ras protein (Ha-Ras; quiescent primary human fibroblasts, PDGF 15 ng/ml): 15 min
duration of PDGFR tyrosine phosphorylation (PDGFR): 15 min
PDGF receptor level (PDGF receptor): down-regulated

Compound: COc1cc2ncc(-c3ccccc3)nc2cc1OC [AG 1296]
effect on ROS induced in Fα cells incubated with SSc IgG [2]: inhibited

Compound: CC[C@@]1([C@@H]2O[C@@H]([C@H]3O[C@@](O)(CO)[C@H](C)C[C@@H]3C)C[C@@H]2C)CC[C@H]([C@]2(C)CC[C@]3(C[C@H](O)[C@@H](C)[C@@H]([C@@H](C)[C@@H](OC)[C@H](C)C(=O)O)O3)O2)O1 [monensin]
effect on Ha Ras levels (Ha-Ras; FIG. 6E): no effect

Compound: OO [H2O2]
Ha Ras induction in the presence of genistein (Ha-Ras; FIG. 6D): powerful inducer

Compound: COC(=O)[C@H](CCSC)NC(=O)c1ccc(NC[C@@H](N)CS)cc1-c1ccccc1 [FTI-277]
effect on ROS induction by SSc IgG in normal fibroblasts (normal human fibroblasts): prevented

The next lines start with results.

effect on Ha-Ras induced by SSc IgG (Ha-Ras; normal human fibroblasts, FIG. 2B, inhibitor for 2 h): slight inhibition
Compound: COc1cc2ncnc(Nc3cccc(Cl)c3)c2cc1OC [AG1478]
effect on ROS induction by SSc IgG in normal fibroblasts (normal human fibroblasts): prevented

effect on induction of Ha-Ras by H2O2 (Ha-Ras; PD 98059 2 h, U0126 15 min incubation, FIGS. 6A, 6B): abolished
effect on Ha-Ras induction by PDGF (Ha-Ras; PDGF 15 ng/ml): inhibited
Compound: COc1cccc(-c2cc(=O)c3ccccc3o2)c1N [PD98059]
effect on ROS induction by SSc IgG in normal fibroblasts (normal human fibroblasts): prevented
effect on oxidative stress-induced apoptosis (SSc fibroblasts): inhibited

From patent publication US20120252037A1, “STIMULATORY AUTO-ANTIBODIES TO THE PDGF RECEPTOR AS PATHOLOGY MARKER AND THERAPEUTIC TARGET” (priority 2005, published 2012)
